Read-outs that look alike come from different tables or passages of the source. Primed or numbered codes have the meaning given here. Where no end group is shown, it is not given here. [ ]: non-standard residue; d: D form. The star is where a group is joined. 5FAM = O=C1OC2(c3ccc(O)cc3Oc3cc(O)ccc32)c2ccc(C(=O)*)cc21; PEG2′ = PEG spacer unit (glycol linker); K(MR) = not defined here; Nle = CCCC[C@H](N)C(=O)O; βAla = NCCC(=O)O
Experiments:
MMP-9 = test: Enzyme assay, fold change in probe fluorescence over background with MMP-9; type: biochemical, human; conditions: different probe scaffolds (monomer, dendrimers); MMP-9 83 kDa
Method: A library of probes (listed in Table 2 below) containing FAM (Carboxyfluorescein) as the fluorophore (donor) and MethylRed (MR) as the quencher (acceptor) and a variety of peptide sequences was synthesized by manual standard solid-phase Fmoc peptide chemistry (described below).
(§1) Enzyme specificity of the lead probes with exogenous enzymes was tested using a multiwell plate fluorimeter at excitation/emission 485/528 nm (Table 3). Recombinant human catalytic domain MMPs-1, -2, -3, -7, -8, -9, -10, -11, -12, -13 were used at 30 nM. Cleavage site for each sequence is indicated in italics.
(§2) The different compounds were also evaluated according to the fold change in fluorescent signal in presence of MMP-9 and MMP-13, and the results are shown in Table 7. From this comparison, the FRET dendrimers comprising SEQ ID NO.1 and SEQ ID NO.7 (AMF-106 and SVC-186) together with the 9Dendrimer comprising SEQ ID NO.7 (SVC-196) were chosen for further evaluation. These dendrimers are shown in FIG. 7, probe A (AMF-106), probe B (SVC-186) and probe C (SVC-196).
(§3) The enzyme assays were run in a 384-well format on a PCR opaque microplate (Thermo Scientific). All dilutions and reactions were prepared in MMP buffer (50 mM Tris, 10 mM CaCl2, 0.15M NaCl, 0.05% Brij-35, pH 7). Proteolytic activity was determined by calculating the fold change in fluorescence over background signal provided by the corresponding dilution of the probe and/or inhibitors with exogenous enzymes using a-multiwell plate fluorimeter (Synergy H1 Hybrid Reader, BioTek instruments Ltd) at excitation/emission 485/528 nm. Recombinant human MMPs (Catalytic domain MMP-1, -2, -3, -7, -8, -9, -10, -11, -12, -13 (Enzo Life Sciences) and Full-length MMP-2, -9, -12 and -13 (Merck/Millipore)) were used at 30 nM. Pro-MMP-13 (R & D Systems) was activated by incubating with 1 mM 4-aminophenylmercunc acetate (APMA) for 2 hrs at 37° C. Human neutrophil elastase (Elastase Product Company, used at 2.5 ug/ml), neutrophil lysate (lysed human neutrophils), and recombinant human Thrombin (Sigma-Aldrich, used at 5 U/ml), Plasmin (Sigma-Aldrich, used at 30 nM) and Factor Xa (Sigma-Aldrich, used at 0.5 μM) were used to identify the lead molecular probe sequences. For inhibition assays, enzyme and inhibitor were pre-incubated for 1 hr at 37° C. before the addition of molecular probe.

MMP-13 [1] = test: Enzyme assay, fold change in probe fluorescence over background with MMP-13; type: biochemical, human; conditions: different probe scaffolds (monomer, dendrimers); MMP-13 52 kDa
Method: as §1, §2, §3

MMP [2] = test: Activation of probe variants by MMP in vitro; type: biochemical
Method: The selectivity of the probes, together with further probes AMF-14b, SVC-030 (both defined in Table 6 below) and SVC-068 (defined in Table 4 below), to detect MMP over elastase, another proteinase relevant in lung disease, was tested and the results for all probes are shown in FIG. 2.
Variants consisting of D-amino acids at the recognition site sequence with or without blocking PEG units were also synthesised and assessed.
as §3

MMP [3] = test: Probe specificity by target inhibition (FIG. 9); type: biochemical, human; conditions: probe 1 μM, 30 min, inhibitor 200 nM
Method: Probe specificity by target inhibition for probes A and probe B. Data represents the fluorescence signal provided by the probe (1 μM) after 30 min using a multiwell plate fluorimeter at excitation/emission 485/528 nm. To validate the specificity and ability of molecular probe to detect the target enzyme, probe fluorescence (initiated by cleavage) was measured in the presence of enzyme with/without inhibitor.
The enzyme assays were run in a 384-well format on a PCR opaque microplate (Thermo Scientific). All dilutions and reactions were prepared in MMP buffer (50 mM Tris, 10 mM CaCl2, 0.15M NaCl, 0.05% Brij-35, pH 7). Proteolytic activity was determined by calculating the fold change in fluorescence over background signal provided by the corresponding dilution of the probe and/or inhibitors with exogenous enzymes using a-multiwell plate fluorimeter (Synergy H1 Hybrid Reader, BioTek instruments Ltd) at excitation/emission 485/528 nm. Recombinant human MMPs (Catalytic domain MMP-1, -2, -3, -7, -8, -9, -10, -11, -12, -13 (Enzo Life Sciences) and Full-length MMP-2, -9, -12 and -13 (Merck/Millipore)) were used at 30 nM. Pro-MMP-13 (R & D Systems) was activated by incubating with 1 mM 4-aminophenylmercunc acetate (APMA) for 2 hrs at 37° C. […] For inhibition assays, enzyme and inhibitor were pre-incubated for 1 hr at 37° C. before the addition of molecular probe.

human MMP-2 = target: T1, human MMP-2 (Homo sapiens, UniProt P08253); test: Enzyme kinetics of the molecular probe, MMP-2; type: biochemical
T1 sequence (P08253 110-660): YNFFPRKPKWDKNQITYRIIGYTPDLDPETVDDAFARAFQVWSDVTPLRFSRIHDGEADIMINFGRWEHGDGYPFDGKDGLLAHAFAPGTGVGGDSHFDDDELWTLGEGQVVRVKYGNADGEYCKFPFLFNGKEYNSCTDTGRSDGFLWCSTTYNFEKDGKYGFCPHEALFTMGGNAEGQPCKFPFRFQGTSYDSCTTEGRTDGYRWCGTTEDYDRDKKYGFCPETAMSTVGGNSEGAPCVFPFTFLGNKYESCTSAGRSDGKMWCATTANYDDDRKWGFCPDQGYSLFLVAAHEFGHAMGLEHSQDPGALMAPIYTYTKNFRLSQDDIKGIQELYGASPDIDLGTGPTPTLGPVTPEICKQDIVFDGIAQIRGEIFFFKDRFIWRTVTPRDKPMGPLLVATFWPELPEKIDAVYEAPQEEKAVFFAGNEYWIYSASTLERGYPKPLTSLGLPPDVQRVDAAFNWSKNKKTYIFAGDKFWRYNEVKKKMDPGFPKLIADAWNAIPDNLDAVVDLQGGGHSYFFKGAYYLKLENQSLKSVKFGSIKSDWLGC
Method: (§4) Enzyme kinetics of the molecular probe specificity to human MMP-2, MMP-9, MMP-13 and plasmin. The kinetic constants KM and Vmax were calculated for probe A and B (Table 8 below).
as §3, with “For inhibition assays, enzyme and inhibitor were pre-incubated for 1 hr at 37° C. before the addition of molecular probe.” left out

human MMP-9 = human MMP-9 (Homo sapiens, UniProt P14780); test: Enzyme kinetics of the molecular probe, MMP-9; type: biochemical
Chain of human MMP-9 (P14780 94-707): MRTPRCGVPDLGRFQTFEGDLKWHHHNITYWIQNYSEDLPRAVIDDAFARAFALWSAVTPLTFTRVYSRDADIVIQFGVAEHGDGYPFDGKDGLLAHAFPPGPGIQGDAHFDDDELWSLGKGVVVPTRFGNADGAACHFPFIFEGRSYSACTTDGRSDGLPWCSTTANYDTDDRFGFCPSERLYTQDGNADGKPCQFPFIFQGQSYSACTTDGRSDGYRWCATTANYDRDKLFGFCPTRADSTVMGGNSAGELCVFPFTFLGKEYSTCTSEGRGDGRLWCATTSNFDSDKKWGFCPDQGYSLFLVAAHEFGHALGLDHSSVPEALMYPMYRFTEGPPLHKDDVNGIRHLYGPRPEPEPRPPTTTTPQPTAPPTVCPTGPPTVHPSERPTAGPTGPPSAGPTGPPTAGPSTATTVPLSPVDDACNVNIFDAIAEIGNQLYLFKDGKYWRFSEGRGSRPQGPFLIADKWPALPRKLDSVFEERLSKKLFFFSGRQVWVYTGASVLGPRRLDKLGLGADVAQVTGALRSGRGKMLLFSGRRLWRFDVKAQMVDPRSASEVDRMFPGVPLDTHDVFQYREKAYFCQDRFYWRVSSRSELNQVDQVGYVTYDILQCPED
Method: as §4
as §3, with “For inhibition assays, enzyme and inhibitor were pre-incubated for 1 hr at 37° C. before the addition of molecular probe.” left out

MMP-13 [4] = target: MMP-13 (Homo sapiens, UniProt P45452); test: Enzyme kinetics of the molecular probe, MMP-13; type: biochemical
Method: as §4
as §3, with “For inhibition assays, enzyme and inhibitor were pre-incubated for 1 hr at 37° C. before the addition of molecular probe.” left out

plasmin [5] = target: T2, plasmin (Homo sapiens, UniProt P00747); test: Enzyme kinetics of the molecular probe, plasmin; type: biochemical
T2 construct: purchased Sigma-Aldrich
T2 sequence (P00747 581-810 limits assumed): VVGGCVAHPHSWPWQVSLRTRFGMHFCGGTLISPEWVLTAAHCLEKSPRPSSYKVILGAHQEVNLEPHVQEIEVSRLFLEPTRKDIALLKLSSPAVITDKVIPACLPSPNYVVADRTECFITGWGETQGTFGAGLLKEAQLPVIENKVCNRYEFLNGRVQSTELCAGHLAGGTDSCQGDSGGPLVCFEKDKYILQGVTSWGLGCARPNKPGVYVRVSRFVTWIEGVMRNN
T2 sequence (P00747 97-580 partner limits assumed): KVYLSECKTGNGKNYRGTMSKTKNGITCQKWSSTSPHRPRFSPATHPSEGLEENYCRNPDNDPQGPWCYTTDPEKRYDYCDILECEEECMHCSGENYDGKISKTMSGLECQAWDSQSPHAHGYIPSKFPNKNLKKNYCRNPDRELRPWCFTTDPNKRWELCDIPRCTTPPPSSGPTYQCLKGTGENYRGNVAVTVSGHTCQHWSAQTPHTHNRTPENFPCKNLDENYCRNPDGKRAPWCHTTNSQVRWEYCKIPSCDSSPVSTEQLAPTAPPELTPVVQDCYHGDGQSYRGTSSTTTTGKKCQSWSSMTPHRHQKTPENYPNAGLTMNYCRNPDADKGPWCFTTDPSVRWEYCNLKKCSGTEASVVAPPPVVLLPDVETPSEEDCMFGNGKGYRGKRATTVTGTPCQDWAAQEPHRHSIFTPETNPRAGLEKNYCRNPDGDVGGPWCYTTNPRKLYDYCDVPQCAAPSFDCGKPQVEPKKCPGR
Method: as §4
as §3, with “For inhibition assays, enzyme and inhibitor were pre-incubated for 1 hr at 37° C. before the addition of molecular probe.” left out

plasmin [6] = target: T2, plasmin; test: Susceptibility / stability of probes to plasmin; type: biochemical
Method: (§5) FIG. 8. Enzyme specificity of the FRET branched probes A, B and C. Data represents the average fold change in fluorescence over background signal provided by probe (10 μM) with exogenous enzymes using a multiwell plate fluorimeter (Synergy H1 Hybrid Reader, BioTek instruments Ltd) at excitation/emission 485/528 nm. Recombinant human catalytic domain MMPs-1, -2, -3, -7, -8, -9, -10, -11, -12, -13 were used at 30 nM. Recombinant human Thrombin, Plasmin and Factor Xa were used at 5 U/ml, 30 nM, 0.5 μM, respectively.
Also, to reduce degradation without altering the amino acid constituents we have synthesised variants including PEG units at the amino and/or carboxy termini in order to block degradation from the ends of the peptide sequence.
(§6) Three selected probes (A: AMF-106, B: SVC-186 B, and C: SVC-196) were evaluated in vitro in a new experiment including other members of the MMP family (MMPs-1, -2, -3, -7, -8, -9, -10, -11, -12, -13) as well as Thrombin, Plasmin and Factor Xa, and the results are shown in FIG. 8. […] The plasmin cleavage site was identified and attempts to make a resistant version replacing with D-aa in these positions were unsuccessful.
as §3, with “Human neutrophil elastase (Elastase Product Company, used at 2.5 ug/ml), neutrophil lysate (lysed human neutrophils), and recombinant human Thrombin (Sigma-Aldrich, used at 5 U/ml), Plasmin (Sigma-Aldrich, used at 30 nM) and Factor Xa (Sigma-Aldrich, used at 0.5 μM) were used to identify the lead molecular probe sequences. For inhibition assays, enzyme and inhibitor were pre-incubated for 1 hr at 37° C. before the addition of molecular probe.” left out

[7] = system: MMPs-1, -2, -3, -7, -8, -9, -10, -11, -12, -13, Thrombin, Plasmin and Factor Xa; test: Enzyme specificity of the FRET branched probes with exogenous enzymes (FIG. 8); type: biochemical, human; conditions: probe 10 μM; for selectivity for MMP-2/9: MMPs 30 nM, Thrombin 5 U/ml, Plasmin 30 nM, Factor Xa 0.5 μM
Method: as §5, §6, §3

MMP-2/9/13 in the lung = test: Ex vivo and in vivo ovine lung and human lung tissue imaging by fCFM; conditions: lung environment
Method: All compounds have undergone biological assessment. For stability we have assessed each compound in the presence of 0.9% NaCl (Saline) or pooled lavage fluid from patients with acute lung injury and analysed by matrix-assisted laser desorption/ionization (MALDI) or fourier transform mass spectrometry (FTMS). In vitro activation was assessed on benchtop confocal in the presence of compound with lung tissue samples. For the ex vivo and in vivo ovine lung (FIG. 11) and human lung tissue experiments (FIG. 12) each compound was assessed in a control lung segment (instilled with 2 ml PBS) or a fibrotic/cancer segment, the compound was administered to the segment of interest and this was imaged by probe based fCFM.

## FAM-PEG2-PFGNleKβA-K[K(MR)2]-PEG2-k-PEG2-k-3 probe elements [SVC-195]
MMP-9
  MMP-9 (83 kDa), fold change in fluorescent signal: 4.84
MMP-13 [1]
  MMP-13 (52 kDa), fold change in fluorescent signal: 9.00
MMP [2]; additional quencher per probe element
  signal-to-noise ratio: did not further improved

## FAM-PEG2-P-F-G-M(S = O)-K-βA-K(MR)-NH2 [SVC-068]
MMP [2]; FIG. 2
  recognition of the cleavable sequence by MMP: not recognised by MMP

## Ac-PEG2-PFGNleKβA-K[K(FAM)2]-PEG2-k-PEG2-k-3 probe elements [SVC-01-198]
MMP [2]
  intensity upon activation by MMP: much lower intensity

## CNC(=O)[C@@H](NC(=O)[C@H](CC(C)C)[C@H](O)C(=O)NO)C(C)(C)C [Marimastat]
MMP [3]
  fluorescent intensity of probes A and B after incubation of the enzyme with inhibitor: significantly reduced

## FAM-PEG2-G-P-K-G-L-K-G-K(MR)-PEG2-k-PEG2-k-3 probe elements ({5FAM-PEG2′}-GPKGLKG; not fully specified (C-terminus); also: three probe elements on a scaffold) [AMF-106]
MMP-9
  MMP-9 (83 kDa), fold change in fluorescent signal: 11.20
MMP-13 [1]
  MMP-13 (52 kDa), fold change in fluorescent signal: 34.52
Human MMP-2
  Km: 0.06 µM
Human MMP-9
  Km: 0.53 µM
MMP-13 [4]
  Km: 0.22 µM
Plasmin [5]
  Km: 0.36 µM
Plasmin [6]
  stability / susceptibility to plasmin: susceptible to plasmin
[7]
  selectivity for MMP-2/9: better selectivity for MMP-2/9

## FAM-K(FAM)-PEG2-PFGNleKβA-K(FAM)-PEG2-k-PEG2-k-3 probe elements ({5FAM-K(FAM)-PEG2′}-PFG[Nle]K[βAla]-{K(FAM)-PEG2′-code k-PEG2′-code k}; also: three probe elements on a scaffold) [SVC-196]
MMP-9
  MMP-9 (83 kDa), fold change in fluorescent signal: 3.33
MMP-13 [1]
  MMP-13 (52 kDa), fold change in fluorescent signal: 11.80
[7]
  signal-to-noise (fold change above the background): lower signal-to-noise
  selectivity for MMP-2/9: poor selectivity

## FAM-PEG2-PFGNleKβA-K(MR)-PEG2-k-PEG2-k-3 probe elements ({5FAM-PEG2′}-PFG[Nle]K[βAla]-{K(MR)-PEG2′-code k-PEG2′-code k}; reading uncertain; also: three probe elements on a scaffold) [SVC-186]
MMP-9
  MMP-9 (83 kDa), fold change in fluorescent signal: 6.49
MMP-13 [1]
  MMP-13 (52 kDa), fold change in fluorescent signal: 26.65
Plasmin [6]; listed as Probe B
  stability / susceptibility to plasmin: plasmin resistant
Plasmin [6]; listed as SVC-01-186
  stability / susceptibility to plasmin: stable
[7]
  selectivity for MMP-2/9: better selectivity for MMP-2/9
MMP-2/9/13 in the lung
  activation in the presence of MMP-2/9/13 in the lung: able to activate

Reference: patent US10507247B2, “Optical probes for matrix metalloproteinases” (The University Court of the University of Edinburgh, priority 2015, dated 2019)
